Laboratory results reported in ChEMBL document CHEMBL3046097, “Synthesis and QSAR analysis of chalcone derivatives as nitric oxide inhibitory agent” (Med Chem Res, 2012).

Legend:
RAW264.7 [1] = test: Anti-inflammatory activity in Mus musculus (mouse) RAW264.7 cells assessed as inhibition of IFN-gamma/LPS-induced NO production after 17 to 20 hr by Griess assay; assay type: functional, cell-based
RAW264.7 [2] = test: Cytotoxicity against Mus musculus (mouse) RAW264.7 cells assessed as reduction in viable cells at 250 uM after 17 to 20 hr by MTT assay; assay type: cell-based; conditions: raw264.7, 250 µM
RAW264.7 [3] = test: Cytotoxicity against Mus musculus (mouse) RAW264.7 cells assessed as reduction in viable cells at 50 uM after 17 to 20 hr by MTT assay; assay type: cell-based; conditions: raw264.7, 50 µM
RAW264.7 [4] = test: Cytotoxicity against Mus musculus (mouse) RAW264.7 cells assessed as reduction in viable cells at 25 uM after 17 to 20 hr by MTT assay; assay type: cell-based; conditions: raw264.7, 25 µM

Row | Compound | IC50 (RAW264.7 [1]; read-out: IC50) [µM] | IC50 (RAW264.7 [1]; read-out: pIC50 (converted)) [µM] | also measured
1 | O=C(/C=C/c1cccc(O)c1)c1ccc(Cl)s1 | 33.3 |  | 
2 | Cc1ccc(C(=O)/C=C/c2ccco2)o1 | 21.3 | 21.4 | Activity (RAW264.7 [2]): Non-toxic; Activity (RAW264.7 [3]): Non-toxic; Activity (RAW264.7 [4]): Non-toxic
3 | O=C(/C=C/c1ccccc1O)c1ccccn1 | 29.9 |  | 
4 | O=C(/C=C/c1cccc(O)c1)c1ccccn1 | 49.5 |  | 
5 | Cc1ccc(C(=O)/C=C/c2ccc(F)cc2)o1 | 17 | 17 | 
6 | O=C(/C=C/c1ccc(O)cc1)c1cccs1 | 46.8 |  | 
7 | COC(=O)[C@@H](N)CCCNC(=N)N[N+](=O)[O-] [L-NAME] | 23.2 |  | 
8 | COc1ccc(OC)c(/C=C/C(=O)c2cccs2)c1 | 38.7 |  | 
9 | O=C(/C=C/c1ccccc1O)c1ccc(Cl)s1 | 23.4 |  | 
10 | O=C(/C=C/c1ccccc1O)c1ccncc1 | 31.7 |  | 
11 | Cc1ccc(C(=O)/C=C/c2ccccc2OCC(=O)O)o1 | ≥ 50 |  | 
12 | O=C(/C=C/c1ccccc1O)c1ccco1 | 19.3 | 19.5 | 
13 | Cc1ccc(C(=O)/C=C/c2ccc(O)cc2)o1 | 16.3 | 16.2 | 
14 | O=C(/C=C/c1cccc(O)c1)c1ccco1 | 24.8 | 24.5 | 
15 | COc1ccc(OC)c(/C=C/C(=O)c2ccc(Cl)s2)c1 | 26 |  | 
16 | Cc1ccc(C(=O)/C=C/c2ccccc2Cl)o1 | 17 | 17 | 
17 | COc1ccc(OC)c(/C=C/C(=O)c2ccco2)c1 | 16 | 15.8 | 
18 | O=C(/C=C/c1ccccc1O)c1cccs1 | 16.2 |  | 
19 | Cc1cc(C(=O)/C=C/c2ccccc2OCC(=O)O)c(C)o1 | ≥ 50 |  | 
20 | O=C(/C=C/c1cccc(O)c1)c1ccncc1 | ≥ 50 |  | 
21 | O=C(/C=C/c1ccc(O)cc1)c1ccncc1 | ≥ 50 |  | 
22 | Cc1ccc(C(=O)/C=C/c2cccc(F)c2)o1 | 16.1 | 16.2 | 
23 | O=C(/C=C/c1ccc(O)cc1)c1ccc(Cl)s1 | ≥ 50 |  | 
24 | O=C(/C=C/c1ccc(O)cc1)c1ccco1 | 24.9 | 25.1 | 

Stronger by IC50 (RAW264.7 [1]; read-out: IC50), values ahead:

Row | IC50 (RAW264.7 [1]; read-out: IC50) [µM] | IC50 (RAW264.7 [1]; read-out: pIC50 (converted)) [µM] | Compound | also measured
25 | 14.5 | 14.5 | Cc1ccc(C(=O)/C=C/c2ccc([N+](=O)[O-])cc2)o1 | 
26 | 13.8 |  | Cc1cc(C(=O)/C=C/c2ccccc2O)c(C)o1 | 
27 | 13.5 |  | Cc1cc(C(=O)/C=C/c2ccc(O)cc2)c(C)o1 | 
28 | 12.9 | 12.9 | Cc1ccc(C(=O)/C=C/c2ccccc2F)o1 | 
29 | 11.5 | 11.5 | Cc1ccc(C(=O)/C=C/c2ccc(Cl)cc2)o1 | 
30 | 11.5 |  | COc1cc(O)cc(O)c1C(=O)/C=C/c1ccccc1 [CARDAMOMIN] | 
31 | 9.35 | 9.33 | Cc1ccc(C(=O)/C=C/c2cccc(O)c2)o1 | 
32 | 7.96 |  | Cc1cc(C(=O)/C=C/c2cccc(O)c2)c(C)o1 | 
33 | 7.76 | 7.76 | Cc1ccc(C(=O)/C=C/c2cccc(Cl)c2)o1 | 
34 | 6.45 | 6.46 | COc1cccc(OC)c1/C=C/C(=O)c1ccc(C)o1 | 
35 | 5.88 | 6.92 | Cc1ccc(C(=O)/C=C/c2ccccc2O)o1 | 
36 | 5.62 | 5.62 | COc1cc(OC)c(/C=C/C(=O)c2ccc(C)o2)c(OC)c1 | 
37 | 5.31 | 12.3 | COc1ccc(/C=C/C(=O)c2ccc(C)o2)c(F)c1 | 
38 | 4.47 | 4.47 | COc1ccc(/C=C/C(=O)c2ccc(C)o2)c(OC)c1OC | 
39 | 2.51 | 2.51 | COc1ccc(OC)c(/C=C/C(=O)c2ccc(C)o2)c1 | 
40 | 2.26 | 2.24 | COc1cccc(/C=C/C(=O)c2ccc(C)o2)c1OC | Activity (RAW264.7 [2]): Toxic; Activity (RAW264.7 [3]): Toxic; Activity (RAW264.7 [4]): Toxic
